Results from patent publication US10087192B2, “2-(het)aryl-substituted fused bicyclic heterocycle derivatives as pesticides” (BAYER CROPSCIENCE AKTIENGESELLSCHSAFT, priority 2015, dated 2018).

Legend:
Type in all cases: in vivo
[1] = tested on: Myzus persicae; experiment: Myzus persicae spray test (Chinese cabbage leaf discs); settings: after 6 days
Procedure: Myzus persicae—Spray Test Solvent: 78 parts by weight of acetone • • 1.5 parts by weight of dimethylformamide Emulsifier: alkylaryl polyglycol ether […] To produce further test concentrations, the preparation is diluted with emulsifier-containing water. Discs of Chinese cabbage leaves (Brassica pekinensis) infested by all stages of the green peach aphid (Myzus persicae) are sprayed with an active compound preparation of the desired concentration.

[2] = tested on: Phaedon cochleariae; experiment: Phaedon cochleariae spray test; settings: after 7 days, larvae on Chinese cabbage leaf discs
Procedure: Phaedon cochleariae—Spray Test
Solvent: 78.0 parts by weight of acetone • • 1.5 parts by weight of dimethylformamide
Emulsifier: alkylaryl polyglycol ether
To produce a suitable preparation of active compound, 1 part by weight of active compound is dissolved using the stated parts by weight of solvent and made up with water containing an emulsifier concentration of 1000 ppm until the desired concentration is attained. To produce further test concentrations, the preparation is diluted with emulsifier-containing water.
After 7 days, the efficacy in % is determined. 100% means that all the beetle larvae have been killed; 0% means that no beetle larvae have been killed.

[3] = tested on: Spodoptera frugiperda; experiment: Spodoptera frugiperda spray test (maize leaf discs); settings: 500 g/ha, after 7 days, caterpillars on maize leaf discs
Procedure: Spodoptera frugiperda—Spray Test Solvent: 78.0 parts by weight of acetone • • 1.5 parts by weight of dimethylformamide Emulsifier: alkylaryl polyglycol ether […] To produce further test concentrations, the preparation is diluted with emulsifier-containing water. Leaf discs of maize (Zea mays) are sprayed with an active compound preparation of the desired concentration and, after drying, populated with caterpillars of the armyworm (Spodoptera frugiperda).

[4] = tested on: Ctenocephalides felis; experiment: Ctenocephalides felis oral test; settings: 100 ppm in citrated cattle blood, after 2 days
Source text: Ctenocephalides felis—Oral Test Solvent: dimethyl sulphoxide […] Dilution with citrated cattle blood gives the desired concentration. About 20 unfed adult cat fleas (Ctenocephalides felis) are placed into a chamber which is closed at the top and bottom with gauze. A metal cylinder whose bottom end is closed with parafilm is placed onto the chamber. The cylinder contains the blood/active compound preparation, which can be imbibed by the fleas through the parafilm membrane.

[5] = tested on: Lucilia cuprina; experiment: Lucilia cuprina test; settings: 100 ppm, after 2 days, L1 larvae
Procedure: Solvent: dimethyl sulphoxide
To produce a suitable preparation of active compound, 10 mg of active compound are mixed with 0.5 ml of dimethyl sulphoxide, and the concentrate is diluted with water to the desired concentration.
About 20 L1 larvae of the Australian sheep blowfly (Lucilia cuprina) are transferred into a test vessel containing minced horsemeat and the active compound preparation of the desired concentration.
After 2 days, the kill in % is determined. 100% means that all the larvae have been killed; 0% means that no larvae have been killed.

SMILES	efficacy ([2]; 500 g/ha) [%]	efficacy ([1]; 500 g/ha) [%]	efficacy [3] [%]	also measured
CCS(=O)(=O)c1ccc(-n2ccn(C)c2=O)nc1-c1nc2cc(C(F)(F)F)ncc2n1C [Example 39]	100			efficacy ([1]; 20 g/ha): 90%
CCS(=O)(=O)c1ccc(N2CCSC2=O)nc1-c1nc2cc(C(F)(F)F)ncc2n1C [Example 42]	100	90		
CCS(=O)(=O)c1ccc(-n2nnn(C)c2=O)nc1-c1nc2cc(C(F)(F)F)ncc2n1C [Example 46]	100		100	
CCS(=O)(=O)c1ccc(-n2ccc(CSC)n2)nc1-c1nc2cc(C(F)(F)F)ncc2n1C [Example 47]	100			
CCS(=O)(=O)c1ccc(-n2nc(C)[nH]c2=O)nc1-c1nc2cc(C(F)(F)F)ncc2n1C [Example 48]	83		100	
CCS(=O)(=O)c1ccc(N2CCSC2)nc1-c1nc2cc(C(F)(F)F)ncc2n1C [Example 50]	100	100		
CCS(=O)(=O)c1ccc(-n2nnn(CC(F)(F)F)c2=O)nc1-c1nc2cc(C(F)(F)F)ncc2n1C [Example 52]	100	90		
CCS(=O)(=O)c1ccc(-n2ccc(C3CC3)n2)nc1-c1nc2cc(C(F)(F)F)ncc2n1C [Example 53]	100	90	100	efficacy (kill) [4]: 100%; efficacy (kill) [5]: 100%
CCS(=O)(=O)c1ccc(-n2nnc(C(F)(F)F)n2)nc1-c1nc2cc(C(F)(F)F)ncc2n1C [Example 55]	100	90	100	
CCS(=O)(=O)c1ccc(-n2nnn(CC(F)(F)C(F)(F)F)c2=O)nc1-c1nc2cc(C(F)(F)F)ncc2n1C [Example 56]	100	100	100	
CCS(=O)(=O)c1ccc(-n2c(SC)nn(C)c2=O)nc1-c1nc2cc(C(F)(F)F)ncc2n1C [Example 58]	83			
CCS(=O)(=O)c1ccc(-n2cc(CS(C)(=O)=O)cn2)nc1-c1nc2cc(C(F)(F)F)ncc2n1C [Example 60]	100			efficacy (kill) [4]: 100%; efficacy (kill) [5]: 95%
CCS(=O)(=O)c1ccc(-c2ccccn2)nc1-c1nc2cc(C(F)(F)F)ncc2n1C [Example 71]	100		100	
CCS(=O)(=O)c1ccc(-c2cccnc2)nc1-c1nc2cc(C(F)(F)F)ncc2n1C [Example 72]		90		efficacy ([2]; 100 g/ha): 83%
CCS(=O)(=O)c1ccc(-c2cc[nH]c2)nc1-c1nc2cc(C(F)(F)F)ncc2n1C [Example 73]	100	90		
CCS(=O)(=O)c1ccc(-c2ccn[nH]2)nc1-c1nc2cc(C(F)(F)F)ncc2n1C [Example 75]	100		100	
CCS(=O)(=O)c1ccc(-c2cc(Cl)cs2)nc1-c1nc2cc(C(F)(F)F)ncc2n1C [Example 77]			100	
CCS(=O)(=O)c1ccc(-c2cnn(C)c2)nc1-c1nc2cc(C(F)(F)F)ncc2n1C [Example 83]	100	90	100	
CCS(=O)(=O)c1ccc(-c2cn[nH]c2)nc1-c1nc2cc(C(F)(F)F)ncc2n1C [Example 84]	83		100	
CCS(=O)(=O)c1ccc(-c2sccc2Cl)nc1-c1nc2cc(C(F)(F)F)ncc2n1C [Example 85]			100	
